Laboratory results as given in the supplement of paper PMC8741786.
Values after ≈ are worked out from the molar mass of the structure shown.

System: Neisseria subflava/flavescens/perflava
Experiment: minimum inhibitory concentration (ETEST)
Conditions: population: general population, antibiotic use in previous 6 months: No
Description: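 Oropharyngeal Neisseria isolates from MSM and employees in Belgium were identified to species by MALDI-TOF MS. MICs of azithromycin, ceftriaxone and ciprofloxacin were determined by ETEST on GC agar after 24 h at 36.5 °C and 5-7% CO2, in mg/L. Values beyond the strip range are reported as >256 (azithromycin) or <0.016 (ceftriaxone); isolates that did not grow are NA.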

Which results are given for `CC[C@H]1OC(=O)[C@H](C)[C@@H](O[C@H]2C[C@@](C)(OC)[C@@H](O)[C@H](C)O2)[C@H](C)[C@@H](O[C@@H]2O[C@H](C)C[C@H](N(C)C)[C@H]2O)[C@](C)(O)C[C@@H](C)CN(C)[C@H](C)[C@@H](O)[C@]1(C)O` [azithromycin]?
minimum inhibitory concentration (isolate id (sample isolate): Co000767_7): 1.5 mg/L (≈ 2 µM); minimum inhibitory concentration (isolate id (sample isolate): Co000768_1): 2 mg/L (≈ 2.67 µM); minimum inhibitory concentration (isolate id (sample isolate): Co000768_2): 3 mg/L (≈ 4.01 µM); minimum inhibitory concentration (isolate id (sample isolate): Co000769_1): 4 mg/L (≈ 5.34 µM); minimum inhibitory concentration (isolate id (sample isolate): Co000769_2): 2 mg/L (≈ 2.67 µM); minimum inhibitory concentration (isolate id (sample isolate): Co000769_4): 4 mg/L (≈ 5.34 µM); minimum inhibitory concentration (isolate id (sample isolate): Co000770_2): 2 mg/L (≈ 2.67 µM); minimum inhibitory concentration (isolate id (sample isolate): Co000770_4): 4 mg/L (≈ 5.34 µM); minimum inhibitory concentration (isolate id (sample isolate): Co000770_6): 3 mg/L (≈ 4.01 µM); minimum inhibitory concentration (isolate id (sample isolate): Co000771_2): 6 mg/L (≈ 8.01 µM); minimum inhibitory concentration (isolate id (sample isolate): Co000771_3): 6 mg/L (≈ 8.01 µM); minimum inhibitory concentration (isolate id (sample isolate): Co000771_5): 3 mg/L (≈ 4.01 µM); minimum inhibitory concentration (isolate id (sample isolate): Co000772_1): 2 mg/L (≈ 2.67 µM); minimum inhibitory concentration (isolate id (sample isolate): Co000772_2): 3 mg/L (≈ 4.01 µM); minimum inhibitory concentration (isolate id (sample isolate): Co000772_4): 4 mg/L (≈ 5.34 µM); minimum inhibitory concentration (isolate id (sample isolate): Co000772_5): 3 mg/L (≈ 4.01 µM); minimum inhibitory concentration (isolate id (sample isolate): Co000772_6): 4 mg/L (≈ 5.34 µM); minimum inhibitory concentration (isolate id (sample isolate): Co000773_1): 2 mg/L (≈ 2.67 µM); minimum inhibitory concentration (isolate id (sample isolate): Co000773_2): 3 mg/L (≈ 4.01 µM); minimum inhibitory concentration (isolate id (sample isolate): Co000774_2): 3 mg/L (≈ 4.01 µM); minimum inhibitory concentration (isolate id (sample isolate): Co000775_1): 2 mg/L (≈ 2.67 µM); minimum inhibitory concentration (isolate id (sample isolate): Co000775_2): 4 mg/L (≈ 5.34 µM); minimum inhibitory concentration (isolate id (sample isolate): Co000775_3): 0.094 mg/L (≈ 0.126 µM); minimum inhibitory concentration (isolate id (sample isolate): Co000776_2): 32 mg/L (≈ 42.7 µM); minimum inhibitory concentration (isolate id (sample isolate): Co000776_3): 24 mg/L (≈ 32 µM); minimum inhibitory concentration (isolate id (sample isolate): Co000777_1): 2 mg/L (≈ 2.67 µM); minimum inhibitory concentration (isolate id (sample isolate): Co000777_2): 0.25 mg/L (≈ 0.334 µM); minimum inhibitory concentration (isolate id (sample isolate): Co000777_4): > 256 mg/L; minimum inhibitory concentration (isolate id (sample isolate): Co000778_1): 3 mg/L (≈ 4.01 µM); minimum inhibitory concentration (isolate id (sample isolate): Co000778_2): 2 mg/L (≈ 2.67 µM); minimum inhibitory concentration (isolate id (sample isolate): Co000778_3): 4 mg/L (≈ 5.34 µM); minimum inhibitory concentration (isolate id (sample isolate): Co000780_4): 2 mg/L (≈ 2.67 µM); minimum inhibitory concentration (isolate id (sample isolate): Co000781_1): 1.5 mg/L (≈ 2 µM); minimum inhibitory concentration (isolate id (sample isolate): Co000781_3): 4 mg/L (≈ 5.34 µM); minimum inhibitory concentration (isolate id (sample isolate): Co000781_4): 3 mg/L (≈ 4.01 µM); minimum inhibitory concentration (isolate id (sample isolate): Co000782_2): 8 mg/L (≈ 10.7 µM); minimum inhibitory concentration (isolate id (sample isolate): Co000782_3): 8 mg/L (≈ 10.7 µM); minimum inhibitory concentration (isolate id (sample isolate): Co000782_4): 8 mg/L (≈ 10.7 µM); minimum inhibitory concentration (isolate id (sample isolate): Co000783_1): 4 mg/L (≈ 5.34 µM); minimum inhibitory concentration (isolate id (sample isolate): Co000783_2): 1.5 mg/L (≈ 2 µM); minimum inhibitory concentration (isolate id (sample isolate): Co000783_5): 2 mg/L (≈ 2.67 µM); minimum inhibitory concentration (isolate id (sample isolate): Co000784_1): 1.5 mg/L (≈ 2 µM); minimum inhibitory concentration (isolate id (sample isolate): Co000784_2): 4 mg/L (≈ 5.34 µM); minimum inhibitory concentration (isolate id (sample isolate): Co000784_5): 4 mg/L (≈ 5.34 µM); minimum inhibitory concentration (isolate id (sample isolate): Co000785_1): 1 mg/L (≈ 1.34 µM); minimum inhibitory concentration (isolate id (sample isolate): Co000785_2): 1.5 mg/L (≈ 2 µM); minimum inhibitory concentration (isolate id (sample isolate): Co000785_3): 2 mg/L (≈ 2.67 µM); minimum inhibitory concentration (isolate id (sample isolate): Co000785_4): 1 mg/L (≈ 1.34 µM); minimum inhibitory concentration (isolate id (sample isolate): Co000786_1): 2 mg/L (≈ 2.67 µM); minimum inhibitory concentration (isolate id (sample isolate): Co000786_2): 4 mg/L (≈ 5.34 µM); minimum inhibitory concentration (isolate id (sample isolate): Co000787_1): 2 mg/L (≈ 2.67 µM); minimum inhibitory concentration (isolate id (sample isolate): Co000787_2): 6 mg/L (≈ 8.01 µM); minimum inhibitory concentration (isolate id (sample isolate): Co000787_4): 6 mg/L (≈ 8.01 µM); minimum inhibitory concentration (isolate id (sample isolate): Co000788_2): 3 mg/L (≈ 4.01 µM); minimum inhibitory concentration (isolate id (sample isolate): Co000788_3): 3 mg/L (≈ 4.01 µM); minimum inhibitory concentration (isolate id (sample isolate): Co000788_5): 3 mg/L (≈ 4.01 µM); minimum inhibitory concentration (isolate id (sample isolate): Co000789_1): 6 mg/L (≈ 8.01 µM); minimum inhibitory concentration (isolate id (sample isolate): Co000790_2): 1 mg/L (≈ 1.34 µM); minimum inhibitory concentration (isolate id (sample isolate): Co000790_4): 1.5 mg/L (≈ 2 µM)
